Like-named read-outs stand apart in the source and are kept apart here.
Experiments:
L1210 = L1210 colony experiment in vitro; assay type: cell-based
[1] = system: methylnitrosourea-induced mammary carcinoma; test: methylnitrosourea-induced mammary carcinoma of the rat, in vivo
Source text: (§1) Hexadecylphosphocholine is a known substance. […] Therefore, in spite of an anti-tumor action, the median survival time in comparison with the control was shortened by 72% in the case of octadecylphosphocholine-treated animals.

tumors = test: anti-tumor action and toxicity, general statement (homologous alkyl compounds); conditions: for anti-tumor action / toxicity: general statement
[2] = subacute toxicity during a treatment of 5 weeks (mortality, median survival time); assay type: in vivo, rat
Source text: as §1

[3] = system: 7,12-dimethylbenzanthracene-induced mammary carcinoma; test: 7,12-dimethylbenzanthracene-induced mammary carcinoma of the rat; assay type: in vivo
[4] = system: chemically induced mammary carcinomas; test: chemically induced mammary carcinoma of the rat (7,12-dimethylbenzanthracene or methylnitrosourea), in vivo; conditions: for minimal effective dose / effect on tumor growth / general dose range for the action / general dose range for the action, especially: rat; for minimal effective dose: read-out: lowest already effective dose
Source text: For oral administration, hexadecylphosphocholine is used, for example, in the form of a potable solution. As carriers there are suitable, for example, milk, cocoa, fruit juice or drinking water. The preparation of such a potable solution takes place, for example, by dilution of a concentrated alcoholic solution of hexadecylphosphocholine with water or another of the previously mentioned agents. […] In the case of the tumor model used for these experiments, it is a question of a so-called hard model. This means that findings obtained with this model can also be transmitted to the human situation.

[5] = Pharmazie 37, 1982, pages 706-707; cited from earlier work
[6] = 5 weeks, daily dose 77 μmole/kg rat orally

## CCCCCCCCCCCCCCOP(=O)([O-])OCC[N+](C)(C)C [tetradecylphosphocholine, reference compound]
L1210
  anti-tumor action: practically no anti-tumor action
[1]; in vivo, autochthonous methylnitrosourea-induced mammary carcinoma of the rat
  anti-tumor action: practically no anti-tumor action

## CCCCCCCCCCCCCCCCOP(=O)([O-])OCC[N+](C)(C)C [hexadecylphosphocholine]
tumors
  anti-tumor action: practically useful good anti-tumor action
  toxicity: sufficient anti-tumor action in non-toxic doses
tumors; listed as Hexadecylphosphocholine
  anti-tumor action: excellent anti-tumor action
tumors; hexadecylphosphocholine together with alkylglycerol
  synergistic increase of antitumor action with alkylglycerols / glycerol ethers of formula I: synergistic action increase of the antitumor action
[2]; [6]
  mortality in comparison with octadecylphosphocholine-treated animals: lower by a half
[2]; 5 weeks, highly significant
  increase of the median survival time in comparison with the controls: 26%
[2]; rat, oral
  chronic toxicity: absence of a chronic toxicity
[3]
  action on 7,12-dimethylbenzanthracene-induced mammary carcinoma: good action
[4]; iv, intravenously
  minimal effective dose: 5 mg/kg
[4]; po, orally
  minimal effective dose: 5 mg/kg
[4]; 10 mg./kg. body weight
  effect on tumor growth: cessation of growth of the tumors
[4]; doses higher than 10 mg./kg.
  effect on tumor growth: complete disappearance of the growths
[4]; intravenously
  general dose range for the action: 5 to 50 mg/kg
  general dose range for the action, especially: 15 to 32 mg/kg
[4]; orally
  general dose range for the action: 5 to 50 mg/kg
  general dose range for the action, especially: 15 to 32 mg/kg
[4]; rats, daily doses of 20, 40 and 60 mg./kg., oral
  remission of chemically induced mammary carcinomas: complete remission
[4]; rats, oral
  compatibility versus 1-octadecyl-2-methyl-rac-glycero-3-phosphocholine: better compatible
  effectiveness versus 1-octadecyl-2-methyl-rac-glycero-3-phosphocholine: better effective
[5]
  lysing and fusogenic action: a lysing and fusogenic action
[1]; rat
  action on methylnitrosourea-induced mammary carcinoma: good action

## CCCCCCCCCCCCCCCCCCOP(=O)([O-])OCC[N+](C)(C)C [octadecylphosphocholine, reference compound]
tumors
  anti-tumor action: anti-tumor effective
  toxicity: far too toxic
[2]; [6]
  shortening of median survival time in comparison with the control: 72%
[2]; in vivo, po, 77 umol/kg, 5 weeks, daily dose 77 μmole/kg rat orally, read-out: mortality (of all animals)
  mortality at 840 h: 80%

— patent US5049552A, “Compositions containing hexadecylphosphocholine and use thereof” (Max-Planck-Gesellschaft fur Foerderung der Wissenschaften …, priority 1985, dated 1991)
